One assay deals with Coagulation factor X (Homo sapiens, UniProt P00742). Description: In vitro inhibitory activity against […] coagulation factor (fXa).
A further assay deals with Prothrombin (Homo sapiens, UniProt P00734). Description: In vitro inhibitory activity against thrombin.
Another assay addresses T1, Coagulation factor VII (Homo sapiens, UniProt P08709).
T1 sequence (P08709 whole entry): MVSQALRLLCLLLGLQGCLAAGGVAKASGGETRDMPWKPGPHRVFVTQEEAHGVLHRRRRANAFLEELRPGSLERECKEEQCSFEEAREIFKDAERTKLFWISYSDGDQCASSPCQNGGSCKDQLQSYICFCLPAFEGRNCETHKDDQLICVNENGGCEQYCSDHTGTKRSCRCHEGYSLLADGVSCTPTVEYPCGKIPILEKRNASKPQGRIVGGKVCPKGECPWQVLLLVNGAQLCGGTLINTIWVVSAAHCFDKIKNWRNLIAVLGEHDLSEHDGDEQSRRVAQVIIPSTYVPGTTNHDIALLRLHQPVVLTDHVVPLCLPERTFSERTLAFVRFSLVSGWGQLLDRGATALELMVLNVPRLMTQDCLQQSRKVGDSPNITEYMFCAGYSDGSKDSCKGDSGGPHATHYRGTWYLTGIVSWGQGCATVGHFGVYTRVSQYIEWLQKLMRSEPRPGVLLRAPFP
Description: In vitro inhibitory activity against coagulation factor VII (fVIIa).

Coagulation factor X, sequence (P00742 41-179 limits assumed): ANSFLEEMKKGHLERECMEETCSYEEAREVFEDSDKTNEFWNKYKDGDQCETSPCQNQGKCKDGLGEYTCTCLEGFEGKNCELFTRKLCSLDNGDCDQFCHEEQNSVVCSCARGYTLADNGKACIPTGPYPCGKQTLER
Coagulation factor X, sequence (P00742 235-488 limits assumed): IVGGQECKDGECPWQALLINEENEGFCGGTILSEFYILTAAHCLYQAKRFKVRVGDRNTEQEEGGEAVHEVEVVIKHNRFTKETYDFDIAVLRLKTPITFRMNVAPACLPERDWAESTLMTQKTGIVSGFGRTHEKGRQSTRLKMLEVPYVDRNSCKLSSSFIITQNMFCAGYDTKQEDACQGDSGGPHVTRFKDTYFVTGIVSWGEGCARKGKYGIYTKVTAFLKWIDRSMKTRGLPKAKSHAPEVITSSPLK

The Ki is a dissociation constant, usually derived from enzyme kinetics or from competition with a known ligand. Low readings indicate tighter binding, high ones weaker binding. With `CC(C)(NC(=O)CNC(=O)Nc1ccc(C(=N)N)cc1)c1ccccc1`, the Ki at Coagulation factor X was greater than 10 µM; on Prothrombin, greater than 50 µM.
`C[C@@H](NC(=O)CNC(=O)Nc1ccc(C(=N)N)cc1)c1cccc(Br)c1`: affinity on Coagulation factor VII was put at a Ki of 31000 nM.
Same read-out and setting: the result for `C[C@H](NC(=O)Nc1ccc(C(=N)N)cc1)C(=O)NCc1ccc(Cl)c(Cl)c1` reads 45800 nM; that for `C[C@H](NC(=O)C(NC(=O)Nc1ccc(C(=N)N)cc1)c1ccccc1)c1cccc(Br)c1` (stereo not given in full), 3200 nM.
Turning to `CC(NC(=O)CNC(=O)Nc1ccc(C(=N)N)cc1)c1ccc2c(c1)NC(=O)CO2` (stereo not given), the inhibitory constant (Ki) at Coagulation factor X is greater than 10 µM; at Prothrombin, 16.4 µM.
Consider `C[C@H](NC(=O)CNC(=O)Nc1ccc(C(=N)N)c(Cl)c1)c1cccc(Br)c1`, for which the inhibition constant (Ki) at Coagulation factor VII was 3760 nM.
With `C[C@@H](NC(=O)CNC(=O)Nc1ccc(C(=N)N)cc1)c1ccccc1`, the Ki on Coagulation factor X is greater than 10 µM; on Prothrombin it was greater than 50 µM.
On the same counts, the results for `CC(NC(=O)CNC(=O)Nc1ccc(C(=N)N)cc1)c1ccc(C(F)(F)F)cc1C(F)(F)F` (stereo not given) are greater than 10 µM and greater than 100 µM.
`CC(NC(=O)CNC(=O)Nc1ccc(C(=N)N)c(F)c1)c1ccc2c(c1)NC(=O)CO2` (stereo not given) yielded a Ki on Coagulation factor VII of 470 nM.
`C[C@H](NC(=O)CNC(=O)Nc1ccc(C(=N)N)cc1)c1cccc(Br)c1`: the Ki on Coagulation factor VII was 27 nM; at Coagulation factor X it was greater than 10 µM; on Prothrombin it was 15.9 µM.
On the same counts, the results for `C[C@H](NC(=O)CNC(=O)Nc1ccc(C(=N)N)cc1)c1ccc2c(c1)OCCO2` are 67 nM, greater than 10 µM and 11.2 µM.
With `N=C(N)c1ccc(NC(=O)NCC(=O)NCc2cccc(Br)c2)cc1`, the Ki on Coagulation factor VII is 1510 nM; on Coagulation factor X, 7.8 µM; on Prothrombin it was greater than 50 µM.
Turning to `C[C@H](NC(=O)CNC(=O)Nc1ccc(C(=N)N)c(F)c1)c1cccc(Br)c1`, the inhibition constant (Ki) on Coagulation factor VII stood at 120 nM.
On to `N=C(N)c1ccc(NC(=O)NCC(=O)NCc2ccc(Cl)c(Cl)c2)cc1`, for which the Ki worked out at 14.5 µM on Coagulation factor X and 10.1 µM on Prothrombin.
The like results for `C[C@H](NC(=O)CNC(=O)Nc1ccc(C(=N)N)cc1)c1ccccc1` were, in that order, greater than 10 µM and 50.7 µM.
Consider `COc1cccc([C@H](C)NC(=O)CNC(=O)Nc2ccc(C(=N)N)cc2)c1`, for which the figures for the Ki at Coagulation factor VII, at Coagulation factor X and on Prothrombin were 35 nM, greater than 10 µM and 18.2 µM, respectively.

(Values after ChEMBL document CHEMBL1144973, “Design, synthesis, and structure-activity relationship of a new class of amidinophenylurea-based factor VIIa inhibitors” (Bioorg Med Chem Lett, 2003).)
